Test results: patent US11274106B2, “Topoisomerase inhibitors with antibacterial and anticancer activity” (THE BOARD OF TRUSTEES OF THE UNIVERSITY OF ILLINOIS, priority 2017, dated 2022)
≈ marks a conversion by molar mass, not a printed value. Like-named read-outs stand apart in the source and are kept apart here.

Key:
[1] = test system: MDA-MB-231 triple negative breast cancer cells; test: Antiproliferative SRB assay, MDA-MB-231; assay type: cell-based; details: for IC50: SRB assay, mean ± SEM
Protocol: FIG. 1. […] Cell death measured by SRB assay after 72 hour of compound exposure (n≥3 biological replicates, error bars show SEM). IC50 values given as mean±SEM from ≥3 biological replicates.
To investigate the feasibility of developing a class of antitumor antibiotics based upon the DNM scaffold, the ability of the DNM to exert an antiproliferative effect against MDA-MB-231 breast cancer cells was evaluated.

S. aureus = test: Antibacterial MIC, microbroth dilution, S. aureus; assay type: cell-based; details: for MIC: Staphylococcus aureus
Protocol: (§1) To investigate this possibility, the antibacterial effects of the DNM derivatives was assessed against strains of E. coli, S. aureus, and MRSA using the microbroth dilution method (Table 2).

E. coli = test: Antibacterial MIC, microbroth dilution, E. coli; assay type: cell-based; details: for MIC: Escherichia coli
Protocol: as §1

MRSA = test: Antibacterial MIC, microbroth dilution, MRSA; assay type: cell-based, S. aureus; details: for MIC: Staphylococcus aureus, MRSA, microbroth dilution
Protocol: as §1

H460 = test: Antiproliferative SRB assay, H460; assay type: cell-based; details: Homo sapiens, NCI-H460, 72 h, Lung cancer, mean ± SEM
Description: (§2) Topoisomerase inhibitors such as DOX are used as single agent and in combination therapy to treat a wide-range of cancer types.

ES-2 = test: Antiproliferative SRB assay, ES-2; assay type: cell-based; details: Homo sapiens, ES-2, 72 h, Cervical cancer (footnote f), mean ± SEM
Description: as §2

BT-474 = test: Antiproliferative SRB assay, BT-474; assay type: cell-based; details: Homo sapiens, BT-474, 72 h, Breast cancer, mean ± SEM
Description: as §2

HL-60 = test: Cell viability Alamar Blue assay, HL-60; assay type: cell-based; details: Homo sapiens, HL-60, 72 h, Leukemia, mean ± SEM
Description: as §2

Jurkat = test: Cell viability Alamar Blue assay, Jurkat; assay type: cell-based; details: Homo sapiens, 72 h, Leukemia, mean ± SEM
Description: as §2

IMR32 = test: Antiproliferative SRB assay, IMR32; assay type: cell-based; details: Homo sapiens, IMR-32, 72 h, Neuroblastoma, mean ± SEM
Description: as §2

panel of cancer cells = test: Average over panel of 10 cancer cell lines; assay type: cell-based; details: 72 hour, read-out: Average (mean) IC50 over the cell line panel
Description: as §2

HOS = test: Antiproliferative SRB assay, HOS; assay type: cell-based; details: Homo sapiens, 72 h, Osteosarcoma, mean ± SEM
Description: as §2

HeLa = test: Antiproliferative SRB assay, HeLa; assay type: cell-based; details: Homo sapiens, 72 h, Ovarian cancer (footnote e), mean ± SEM
Description: as §2

HCT-116 = test: Antiproliferative SRB assay, HCT-116; assay type: cell-based; details: Homo sapiens, HCT-116, 72 h, Colon cancer, mean ± SEM
Description: as §2

[2] = Homo sapiens, MDA-MB-231, 72 h, 72 hour compound exposure, read-out: MDA-MB-231 IC50
[3] = Homo sapiens, MDA-MB-231, 72 h, Breast cancer, read-out: 72 hour IC50, MDA-MB-231
[4] = 72 hour compound exposure, read-out: MDA-MB-231 IC50

Q: `Cc1cc(=O)n(-c2ccccc2)c2c3c4c(cc12)c(C)cc(=O)n4C(CN)CO3` (centres unmarked) [Compound 13] was tested. Which IC50 [1, 2] did it give?
A: 1600 ± 600 nM

Q: What about the MIC (S. aureus) of the same molecule?
A: > 16 µg/mL

Q: And the MIC (E. coli)?
A: > 16 µg/mL

Q: `Cc1cc(=O)n(C)c2c3c4c(cc12)c(C)cc(=O)n4C(C(N)=O)O3` (centres unmarked) [Compound 4] was tested. Which IC50 [1, 2] did it give?
A: 8300 ± 700 nM

Q: What about the MIC (S. aureus) of the same molecule?
A: > 16 µg/mL

Q: And the MIC (E. coli)?
A: > 16 µg/mL

Q: What about the MIC (MRSA) of the same molecule?
A: 4 µg/mL (≈ 12.3 µM)

Q: For `Cc1cc(=O)n(C)c2c3c4c(cc12)c(C)cc(=O)n4C(C(=O)O)O3` (centres unmarked) [Compound 5], which IC50 [1, 2] is on record?
A: 3600 ± 600 nM

Q: What about the MIC (S. aureus) of the same molecule?
A: > 32 µg/mL

Q: What about the MIC (E. coli) of the same molecule?
A: > 32 µg/mL

Q: And the MIC (MRSA)?
A: 2 µg/mL (≈ 6.13 µM)

Q: What does the source list for `Cc1cc(=O)n2c3c(c4c(cc13)c1ccccc1c(=O)n4C)OCC2CN1CCCCC1` (centres unmarked) [Compound 23]?
A: IC50 (H460): 24 ± 2 nM; IC50 (ES-2): 67 ± 8 nM; IC50 (BT-474): 1000 ± 100 nM; IC50 (HL-60): 440 ± 130 nM; IC50 [1, 3]: 79 ± 7 nM; IC50 [1, 2]: 79 ± 7 nM; MIC (S. aureus): 0.5 µg/mL (≈ 1.16 µM); IC50 (Jurkat): 240 ± 40 nM; MIC (E. coli): 2 µg/mL (≈ 4.66 µM); IC50 (IMR32): 20 ± 0.2 nM; IC50 (panel of cancer cells): 214 nM; IC50 (HOS): 55 ± 1 nM; IC50 (HeLa): 136 ± 5 nM; IC50 (HCT-116): 79 ± 10 nM

Q: For `Cc1cc(=O)n(C)c2c3c4c(cc12)c(C)cc(=O)n4C(CN)CO3` (centres unmarked) [Compound 19], which IC50 [1, 4] is on record?
A: 4000 ± 800 nM

Q: What about the “S. aureus MIC” value (S. aureus) of the same molecule?
A: 32 µg/mL

Q: And the “E. coli MIC” value (E. coli)?
A: >16 µg/mL

Q: `Cc1cc(=O)[nH]c2c3c4c(cc12)c(C)cc(=O)n4CCO3` [Compound 10] was tested. Which IC50 [1, 2] did it give?
A: 1600 ± 200 nM

Q: And the MIC (S. aureus)?
A: 4 µg/mL (≈ 14.2 µM)

Q: What about the MIC (E. coli) of the same molecule?
A: > 32 µg/mL

Q: How did the “Antiproliferative effect against MDA-MB-231 cells” value ([1]; doses as high as 50 μM) turn out when `O=C(O)c1cn(C2CC2)c2cc(N3CCNCC3)c(F)cc2c1=O` [ciprofloxacin, reference compound] was run?
A: only minimal effects

Q: With `Cc1cc(=O)n2c3c(c4c(cc13)c1ccccc1c(=O)n4C)OCC2CN1CCCC1` (centres unmarked) [Compound 22] as the molecule, how does the IC50 (H460) read?
A: 7.2 ± 0.6 nM

Q: What about the IC50 (ES-2) of the same molecule?
A: 23 ± 4 nM

Q: And the IC50 (BT-474)?
A: 235 ± 1 nM

Q: And the IC50 (HL-60)?
A: 94 ± 6 nM

Q: And the IC50 [1, 3]?
A: 31 ± 3 nM

Q: And the IC50 [1, 2]?
A: 31 ± 3 nM

Q: What about the MIC (S. aureus) of the same molecule?
A: 0.25 µg/mL (≈ 0.602 µM)

Q: And the IC50 (Jurkat)?
A: 69 ± 7 nM

Q: And the MIC (E. coli)?
A: 1 µg/mL (≈ 2.41 µM)

Q: And the IC50 (IMR32)?
A: 4.9 ± 0.1 nM

Q: What about the IC50 (panel of cancer cells) of the same molecule?
A: 55 nM

Q: What about the IC50 (HOS) of the same molecule?
A: 16 ± 0.4 nM

Q: What about the IC50 (HeLa) of the same molecule?
A: 46 ± 2 nM

Q: And the IC50 (HCT-116)?
A: 23 ± 3 nM

Q: Which IC50 [1, 4] does the source give for `Cc1cc(=O)n2c3c(c4c(cc13)c1ccccc1c(=O)n4C)OCC2CN` (centres unmarked) [Compound 16] here?
A: 30 ± 6 nM

Q: And the “S. aureus MIC” value (S. aureus)?
A: 1 µg/mL

Q: And the “E. coli MIC” value (E. coli)?
A: 0.25 µg/mL

Q: Which IC50 [1, 4] does the source give for `Cc1cc(=O)n(C)c2c3c4c(cc12)c(C)cc(=O)n4C(CN)CO3` (centres unmarked) [Compound 18] here?
A: 200 ± 10 nM

Q: What about the “S. aureus MIC” value (S. aureus) of the same molecule?
A: 0.5 µg/mL

Q: What about the “E. coli MIC” value (E. coli) of the same molecule?
A: 0.25 µg/mL

Q: `Cc1cc(=O)n(C)c2c3c4c(cc12)c(C)cc(=O)n4C(CN1CCCCC1)CO3` (centres unmarked) [Compound 21] was tested. Which IC50 (H460) did it give?
A: 11 ± 2 nM

Q: And the IC50 (ES-2)?
A: 22 ± 6 nM

Q: What about the IC50 (BT-474) of the same molecule?
A: 90 ± 10 nM

Q: And the IC50 (HL-60)?
A: 55 ± 11 nM

Q: And the IC50 [1, 3]?
A: 17 ± 1 nM

Q: And the IC50 [1, 2]?
A: 17 ± 1 nM

Q: And the MIC (S. aureus)?
A: 0.5 µg/mL (≈ 1.27 µM)

Q: What about the IC50 (Jurkat) of the same molecule?
A: 33 ± 4 nM

Q: What about the MIC (E. coli) of the same molecule?
A: 4 µg/mL (≈ 10.2 µM)

Q: What about the IC50 (IMR32) of the same molecule?
A: 6 ± 1.6 nM

Q: What about the IC50 (panel of cancer cells) of the same molecule?
A: 31 nM

Q: What about the IC50 (HOS) of the same molecule?
A: 21 ± 3 nM

Q: What about the IC50 (HeLa) of the same molecule?
A: 46 ± 2 nM

Q: What about the IC50 (HCT-116) of the same molecule?
A: 8 ± 1 nM

Q: `Cc1cc(=O)n(C)c2c3c4c(cc12)c(C)cc(=O)n4C(CO)CO3` (centres unmarked) [Compound 7] was tested. Which IC50 [1, 2] did it give?
A: > 10000 nM

Q: And the MIC (S. aureus)?
A: 16 µg/mL (≈ 49 µM)

Q: And the MIC (E. coli)?
A: > 16 µg/mL

Q: And the “Activity against MRSA” value (MRSA)?
A: remains effective against MRSA

Q: What about the MIC (MRSA) of the same molecule?
A: 0.25 µg/mL (≈ 0.766 µM)
